In publication PMC5407577, “Functional and genetic evidence that nucleoside transport is highly conserved in Leishmania species: Implications for pyrimidine-based chemotherapy” (International Journal for Parasitology: Drugs and Drug …, 2017):
Where two headings read alike, the source gives them in different places.

Experiments:
[1] = tested on: L. major promastigotes WT; test: Alamar blue drug sensitivity assay, L. major WT; type: cell-based, Leishmania major; settings: Leishmania major, WT promastigotes, 72 h + 48 h with dye, n ≥ 4
Description: (§1) Sensitivity assays of Leishmania strains to various drugs using the viability dye resazurin (Alamar Blue) (Sigma-Aldrich) were performed using a protocol adapted from [Räz et al. (1997)], as described ([Al-Salabi et al., 2003], [Gould et al., 2008]). Pentamidine and diminazene were used as non-nucleoside controls and were obtained from Sigma-Aldrich, as were many purines, pyrimidines, and analogs, with the exceptions of 2-thiouridine and 4-thiouridine (TriLink BioTechnologies, San Diego, CA); 5′-deoxyuridine, and 2′-3′-dideoxyuridine (Carbosynth, Compton, UK); 5-fluoro-2′-deoxyuridine (Fluka); and 2-thiouracil (ICN Biomedicals, Cambridge, UK). A preliminary promastigote culture was diluted to a density of 2 × 10^6 cells/ml, of which 100 μl was added to wells of 96-well plates pre-loaded with 100 μl of doubling dilutions of test compounds, resulting in a final density of 1 × 10^6 cells/ml; the dilutions were over 2 rows of the plate (23 concentrations), with the last well containing only medium and serving as the no-drug control. The plates were incubated at 25 °C for 72 h before adding the Alamar Blue dye (20 μl of 12.5 mg resazurin sodium salt (Sigma) in 100 ml phosphate buffered saline (PBS; pH 7.4)). Since Leishmania parasites metabolize the Alamar Blue dye slower than trypanosomes ([Gould et al., 2008]), the cells were incubated with the dye for a further period of 48 h before measuring the fluorescence, using a FLUOstar Optima fluorimeter (BMG Labtech) at wavelengths of 544 nm for excitation and 620 nm for emission. […] Each experiment was performed independently at least 4 times; statistical significance was determined using Student's unpaired t-test.

LmajNT1 = test: [3H]-thymidine uptake by L. major promastigotes; type: cell-based, Leishmania major
Description: (§2) Using the standard uptake technique as described for T. brucei and Leishmania species ([Wallace et al., 2002], [Al-Salabi and De Koning, 2005], [Gudin et al., 2006]), the dose- or time-dependent uptake of radiolabeled permeants was investigated.
(§3) Briefly, cells in the mid-to-late logarithmic stage of growth were harvested by centrifugation for 10 min at 1500×g. The cells were washed twice with transport assay buffer (AB: 33 mM HEPES, 98 mM NaCl, 4.6 mM KCl, 0.55 mM CaCl2, 0.07 mM MgSO4, 5.8 mM NaH2PO4, 0.3 mM MgCl2, 23 mM NaHCO3, 14 mM glucose, pH 7.3), resuspended at a density of 10^8 cells ml^−1 in AB, and left for 20–30 min at room temperature to recover from centrifugation stress. One hundred microliters of cell suspension was incubated at ambient temperature for a predetermined time with 100 μl radiolabeled test compound, in the presence or absence of unlabeled substrate or other competitive inhibitors. The incubation was terminated by the addition of ice-cold stop solution (AB containing saturating levels, usually 10 mM, of unlabeled permeant) and centrifugation through oil for 1 min at 13,000 × g. […] Radioactivity was determined by liquid scintillation counting in a Beckman LS6000 TA scintillation counter. Saturation data, inhibition data, and time courses were plotted to equations for linear or non-linear regression (hyperbolic or sigmoid curves), as appropriate. All experiments were performed in triplicate and on at least three independent occasions.
Subsequent experiments were performed with a 5 min incubation time.

[2] = tested on: L. mexicana promastigotes WT; test: Alamar blue drug sensitivity assay, L. mexicana WT; type: cell-based, Leishmania mexicana; settings: Leishmania mexicana, 72 h, WT promastigotes, 72 h + 48 h with dye, n ≥ 4
Description: as §1

Lmex5FURes = test: microbe, parasite or virus in culture; type: cell-based, Leishmania mexicana; settings: for EC50: Leishmania mexicana; for RF (Resistance Factor = IC50 (resistant clone)/IC50 (WT)): Lmex5FURes vs L. mexicana WT
Description: as §1

Lmex5F2′dURes = test: microbe, parasite or virus in culture; type: cell-based, Leishmania mexicana; settings: for EC50: Leishmania mexicana; for RF (Resistance Factor = IC50 (resistant clone)/IC50 (WT)): Lmex5F2′dURes vs L. mexicana WT
Description: as §1

Lmaj5F2′dURes = test: microbe, parasite or virus in culture; type: cell-based, Leishmania major; settings: for EC50: Leishmania major; for RF (Resistance Factor = IC50 (resistant clone)/IC50 (WT)): Lmaj5F2′dURes vs L. major WT
Description: as §1

Lmaj5FURes = test: microbe, parasite or virus in culture; type: cell-based, Leishmania major; settings: for EC50: Leishmania major; for RF (Resistance Factor = IC50 (resistant clone)/IC50 (WT)): Lmaj5FURes vs L. major WT
Description: as §1

LmexNT1 [3] = test: [3H]-adenosine uptake by L. mexicana promastigotes; type: cell-based, Leishmania mexicana; settings: inhibition of 0.05 μM [3H]-adenosine uptake; read-out: Ki
Source text: Using the standard uptake technique as described for T. brucei and Leishmania species ([Wallace et al., 2002], [Al-Salabi and De Koning, 2005], [Gudin et al., 2006]), the dose- or time-dependent uptake of radiolabeled permeants was investigated. The following radiolabels and specific activities were used: [^3H]-thymidine (Perkin Elmer; 56.6 Ci/mmol); [^3H]-adenosine (American Radiolabeled Chemicals UK; 40 Ci/mmol); [^3H]-uridine (American Radiolabeled Chemicals UK; 30 Ci/mmol); [^3H]-uracil (Perkin Elmer; 24.8 Ci/mmol); [^3H]-inosine (American Radiolabeled Chemicals UK; 20 Ci/mmol); [^3H]-5-fluorouracil (Moravek; 20 Ci/mmol).
as §3
We next investigated the transport of [^3H]-adenosine in L. mexicana promastigotes, which according to the efficient inhibition of [^3H]-thymidine by adenosine, should be taken up with high affinity.

LmexNT1 [4] = type: cell-based, Leishmania mexicana
Description: as §2, §3

LmexNT1 [5] = type: cell-based, Leishmania mexicana; remark: listed apart in the source
Description: as §2, §3
L. donovani is known to express one pyrimidine nucleoside transporter, LdNT1, which also transports adenosine ([Vasudevan et al., 1998], [De Koning et al., 2005]). In order to investigate whether this model held true for L. mexicana, the uptake of [^3H]-thymidine was studied. […] Care was taken throughout this study that whenever inhibition constants (Ki) or Michaelis-Menten constants (Km) were determined the conditions used had been verified to be well within the linear range of uptake.

LmexUU1 = type: cell-based, Leishmania mexicana
Description: as §2, §3

[6] = inhibition of 0.25 μM [3H]-thymidine uptake (total LmajNT1.1 + LmajNT1.2), 5 min
[7] = inhibition of [3H]-uracil uptake, 4 min

O=c1ccn([C@@H]2O[C@H](CO)[C@@H](O)[C@H]2O)c(=S)[nH]1 [2-thiouridine] gave an EC50 ([1]; 72 h) greater than 5000 µM, a Ki (LmajNT1) of 765 ± 68 µM and an EC50 [2] greater than 5000 µM.

With O=c1ccn([C@H]2CC[C@@H](CO)O2)c(=O)[nH]1 [2′,3′-dideoxyuridine] the EC50 ([1]; 72 h) was greater than 5000 µM, the Ki (LmajNT1) was greater than 2500 µM and the EC50 [2] was greater than 5000 µM.

O=C1C=CN([C@@H]2O[C@H](CO)[C@@H](O)[C@H]2O)C(=O)C1 [3-deazauridine] gave a Ki (LmajNT1; [6]) of 3670 ± 420 µM.

Work on Cc1cn([C@H]2CC[C@@H](CO)O2)c(=O)[nH]c1=O [3′-deoxythymidine] yielded a Ki (LmajNT1; [6]) of 1250 ± 44.5 µM.

Work on O=c1ccn([C@@H]2O[C@H](CO)C[C@H]2O)c(=O)[nH]1 [3′-deoxyuridine] yielded an EC50 ([1]; 72 h) greater than 5000 µM and an EC50 [2] greater than 5000 µM.

O=c1[nH]c(=S)ccn1[C@@H]1O[C@H](CO)[C@@H](O)[C@H]1O [4-thiouridine] showed an EC50 ([1]; 72 h) greater than 5000 µM, a Ki (LmajNT1; [6]) of 69 ± 18.1 µM and an EC50 [2] greater than 5000 µM.

Work on O=c1[nH]c(=O)n([C@H]2C[C@H](O)[C@@H](CO)O2)cc1Br [5-bromo-2′-deoxyuridine] yielded an EC50 ([1]; 72 h) greater than 5000 µM and an EC50 [2] greater than 5000 µM.

With O=c1[nH]cc(Br)c(=O)[nH]1 [5-bromouracil] the EC50 ([1]; 72 h) was greater than 5000 µM and the EC50 [2] was greater than 5000 µM.

O=c1[nH]c(=O)n([C@@H]2O[C@H](CO)[C@@H](O)[C@H]2O)cc1Br [5-bromouridine] was tested, and the EC50 ([1]; 72 h) was greater than 5000 µM and the EC50 [2] was greater than 5000 µM.

O=c1[nH]c(=O)n([C@H]2C[C@H](O)[C@@H](CO)O2)cc1Cl [5-chloro-2′-deoxyuridine] showed an EC50 ([1]; 72 h) greater than 5000 µM and an EC50 [2] greater than 5000 µM.

With O=c1[nH]c(=O)n([C@@H]2O[C@H](CO)[C@@H](O)[C@H]2O)cc1Cl [5-chlorouridine] the EC50 ([1]; 72 h) was greater than 5000 µM and the EC50 [2] was greater than 5000 µM.

Work on C[C@H]1O[C@@H](n2cc(F)c(=O)[nH]c2=O)[C@H](O)[C@@H]1O [5-fluoro,5′-deoxyuridine] yielded a Ki (LmajNT1; [6]) of 168 ± 32 µM.

Nc1nc(=O)n([C@@H]2O[C@H](CO)[C@@H](O)[C@H]2O)cc1F [5-fluorocytidine] gave an EC50 ([1]; 72 h) greater than 5000 µM and an EC50 [2] greater than 5000 µM.

For Nc1nc(=O)[nH]cc1F [5-fluorocytosine], the EC50 ([1]; 72 h) was greater than 5000 µM and the EC50 [2] was greater than 5000 µM.

Molecule O=c1[nH]c(=O)n([C@H]2C[C@H](O)[C@@H](CO)O2)cc1I [5-iodo-2′-deoxyuridine] has an EC50 ([1]; 72 h) greater than 5000 µM and an EC50 [2] greater than 5000 µM.

O=c1[nH]c(=O)n([C@@H]2O[C@H](CO)[C@@H](O)[C@H]2O)cc1I [5-iodouridine] was tested, and the EC50 ([1]; 72 h) was greater than 5000 µM and the EC50 [2] was greater than 5000 µM.

For Nc1nc(=O)n([C@H]2C[C@H](O)[C@@H](CO)O2)cc1F [5F-2′dCtd, 5-Fluoro-2′-deoxycytidine], the EC50 ([1]; read-out: EC50) was 38 ± 1.7 µM, the EC50 (Lmex5FURes) was 24 ± 0.9 µM and the “RF (Resistance Factor = IC50 (resistant clone)/IC50 (WT))” value (shortened to “RF”) (Lmex5FURes) was 1.4. The EC50 (Lmex5F2′dURes) was greater than 5000 µM, the “RF” value (Lmex5F2′dURes) was greater than 290 and the EC50 (Lmaj5F2′dURes) was 3870 ± 621 µM. For the same molecule, the “RF” value (Lmaj5F2′dURes) was 101, the EC50 (Lmaj5FURes) was 17 ± 1.8 µM and the “RF” value (Lmaj5FURes) was 0.4. It also gave an EC50 ([2]; read-out: EC50) of 17.3 ± 1.8 µM.

In the case of O=c1ccn([C@@H]2O[C@H](CF)[C@@H](O)[C@H]2O)c(=O)[nH]1 [5′-deoxy-5′-fluorouridine], the EC50 ([1]; 72 h) is reported as greater than 5000 µM and the EC50 [2] is reported as greater than 5000 µM.

C[C@H]1O[C@@H](n2ccc(=O)[nH]c2=O)[C@H](O)[C@@H]1O [5′dUrd, 5′-deoxyuridine] showed an EC50 ([1]; read-out: EC50) of 525 ± 46 µM and an EC50 ([2]; read-out: EC50) of 461 ± 80 µM.

O=c1cn[nH]c(=O)[nH]1 [6-azauracil] was tested, and the EC50 ([1]; 72 h) was greater than 5000 µM and the EC50 [2] was greater than 5000 µM.

With Nc1ccn([C@@H]2O[C@H](CO)[C@@H](O)[C@H]2O)c(=O)n1 [cytidine] the Ki (LmexNT1 [3]) was 149 ± 18 µM, the Ki (LmexNT1 [4]; inhibition of 0.25 μM [3H]-uridine uptake in the presence of 1 mM uracil) was 78.6 ± 15.1 µM and the Ki (LmajNT1; [6]) was 1150 ± 108 µM. The Ki (LmexNT1 [5]; inhibition of 1 μM [3H]-thymidine uptake, 20 s) was 82 ± 5 µM.

With Nc1cc[nH]c(=O)n1 [cytosine] the Ki (LmexUU1; [7]) was greater than 5000 µM.

N=C(N)c1ccc(/N=N/Nc2ccc(C(=N)N)cc2)cc1 [diminazene] was tested, and the EC50 ([1]; read-out: EC50) was 9.8 ± 0.3 µM, the EC50 (Lmex5FURes) was 7.2 ± 1.4 µM and the “RF” value (Lmex5FURes) was 0.97. The EC50 (Lmex5F2′dURes) was 13.9 ± 1.9 µM, the “RF” value (Lmex5F2′dURes) was 1.8 and the EC50 (Lmaj5F2′dURes) was 24.6 ± 1.5 µM. The “RF” value (Lmaj5F2′dURes) was 2.5, the EC50 (Lmaj5FURes) was 10 ± 1.6 µM and the “RF” value (Lmaj5FURes) was 1.02. For the same molecule, the EC50 ([2]; read-out: EC50) was 7.4 ± 0.3 µM.

Work on O=c1[nH]cnc2nc[nH]c12 [hypoxanthine] yielded a Ki (LmexUU1) greater than 500 µM, a Ki (LmexNT1 [4]) greater than 1000 µM and a Ki (LmexNT1 [5]) greater than 1000 µM.

For N=C(N)c1ccc(OCCCCCOc2ccc(C(=N)N)cc2)cc1 [pentamidine], the EC50 ([1]; read-out: EC50) was 3.3 ± 0.2 µM, the EC50 (Lmex5FURes) was 5 ± 0.6 µM and the “RF” value (Lmex5FURes) was 1.1. It also gave an EC50 ([2]; read-out: EC50) of 4.6 ± 0.2 µM.

Cc1c[nH]c(=O)[nH]c1=O [thymine] was tested, and the Ki (LmexUU1; [7]) was 560 ± 190 µM and the Ki (LmajNT1; [6]) was greater than 1000 µM.
